Source: patent publication US10800725B2, “Arylpropionyl-triketone antibacterial agents” (priority 2010, dated 2020)
pIC50: −log10 of the molar value. In brackets after ≈: the same amount, converted by molar mass.

Tests used:
[1] = tested on: Enterococcus faecium ATCC 19434; test: MIC, spiral gradient endpoint assay; settings: ATCC19434, read-out: MIC E. faecium 19434
[2] = tested on: Francisella tularensis SCHU4; test: microbe, parasite or virus in culture; assay type: cell-based; settings: SCHU4, read-out: MIC F. tularensis SCHU4
[3] = tested on: Enterococcus faecalis ATCC 19433; test: MIC, spiral gradient endpoint assay; settings: ATCC19433, read-out: MIC E. faecalis 19433
[4] = biological target: M. tuberculosis RNA polymerase core enzyme + σA (Mycobacterium tuberculosis (strain ATCC 25618 / H37Rv), UniProt P9WGY7+P9WGY9); test: Fluorescence-detected RNA polymerase assay, M. tuberculosis RNAP; assay type: biochemical
Procedure: (§1) Fluorescence-detected RNA polymerase assays with E. coli RNA polymerase were performed by a modification of the procedure of Kuhlman et al., 2004 [Kuhlman, P., Duff, H. & Galant, A. (2004) A fluorescence-based assay for multisubunit DNA-dependent RNA polymerases. Anal. Biochem. 324, 183-190]. Reaction mixtures contained (20 μl): 0-100 nM test compound, 75 nM E. coli RNA polymerase σ^70 holoenzyme, 20 nM 384 bp DNA fragment containing the bacteriophage T4 N25 promoter, 100 μM ATP, 100 μM GTP, 100 μM UTP, 100 μM CTP, 50 mM Tris-HCl, pH 8.0, 100 mM KCl, 10 mM MgCl2, 1 mM DTT, 10 μg/ml bovine serum albumin, and 5.5% glycerol. Reaction components other than DNA and NTPs were pre-incubated for 10 min at 37° C. Reactions were carried out by addition of DNA and incubation for 5 min at 37° C., followed by addition of NTPs and incubation for 60 min at 37° C. DNA was removed by addition of 1 μl 5 mM CaCl2 and 2 U DNaseI (Ambion, Inc.), followed by incubation for 90 min at 37° C. RNA was quantified by addition of 100 μl RiboGreen RNA Quantitation Reagent (Invitrogen, Inc.; 1:500 dilution in Tris-HCl, pH 8.0, 1 mM EDTA), followed by incubation for 10 min at 25° C., followed by measurement of fluorescence intensity [excitation wavelength=485 nm and emission wavelength=535 nm; QuantaMaster QM1 spectrofluorometer (PTI, Inc.)]. IC50 is defined as the concentration of inhibitor resulting in 50% inhibition of RNA polymerase activity.
(§2) Fluorescence-detected RNA polymerase assays with M. tuberculosis RNA polymerase were performed as in Example 21.1, using reaction mixtures containing (20 μl): 0-100 nM test compound, 75 nM M. tuberculosis RNA polymerase core enzyme, 300 nM M. tuberculosis σ^A, 20 nM 384 bp DNA fragment containing the bacteriophage T4 N25 promoter, 100 μM ATP, 100 μM GTP, 100 μM UTP, 100 μM CTP, 40 mM Tris-HCl, pH 8.0, 80 mM NaCl, 5 mM MgCl2, 2.5 mM DTT, and 12.7% glycerol. IC50 is defined as the concentration of inhibitor resulting in 50% inhibition of RNA polymerase activity.

[5] = tested on: Bacillus anthracis Vollum-1b; test: microbe, parasite or virus in culture; assay type: cell-based; settings: VOLLUM1B, read-out: MIC B. anthracis Vollum-1b
[6] = tested on: Streptococcus pyogenes ATCC 12344; test: MIC, spiral gradient endpoint assay (GC II agar, 5% CO2); settings: ATCC12344, read-out: MIC S. pyogenes 12344
[7] = tested on: Escherichia coli D21f2tolC; test: MIC, spiral gradient endpoint assay; settings: read-out: MIC E. coli D21f2tolC
[8] = tested on: Staphylococcus aureus BAA-1717 MRSA (USA300); test: MIC, spiral gradient endpoint assay; settings: read-out: MIC S. aureus MRSA 1717
[9] = tested on: Streptococcus pneumoniae ATCC 49619; test: MIC, spiral gradient endpoint assay (GC II agar, 5% CO2); settings: ATCC49619, read-out: MIC S. pneumoniae 49619
[10] = biological target: S. aureus RNA polymerase core enzyme + σA (Staphylococcus aureus (strain NCTC 8325 / PS 47), UniProt P47768+Q2G0N5); test: Fluorescence-detected RNA polymerase assay, S. aureus RNAP; assay type: biochemical
Procedure: as §1
as §2, with “S. aureus” for “M. tuberculosis”

[11] = biological target: E. coli RNA polymerase σ70 holoenzyme (Escherichia coli (strain K12), UniProt P0A8T7+P0A8V2); test: Fluorescence-detected RNA polymerase assay, E. coli RNAP; assay type: biochemical
Procedure: as §1

[12] = tested on: Staphylococcus aureus ATCC 12600; test: MIC, spiral gradient endpoint assay; settings: ATCC12600, read-out: MIC S. aureus 12600
[13] = tested on: Staphylococcus aureus BAA-1707 MRSA (MW2); test: MIC, spiral gradient endpoint assay; settings: read-out: MIC S. aureus MRSA 1707
[14] = tested on: Mycobacterium tuberculosis H37Rv; test: MIC, microplate Alamar Blue assay; settings: read-out: MIC M. tuberculosis H37Rv
[15] = tested on: Moraxella catarrhalis ATCC 25238; test: MIC, spiral gradient endpoint assay (GC II agar, 5% CO2); settings: ATCC25238, read-out: MIC M. catarrhalis 25238
[16] = tested on: Staphylococcus aureus ATCC 13709 MSSA; test: MIC, spiral gradient endpoint assay; settings: read-out: MIC S. aureus 13709

Structure (SMILES) | MIC [1] [µg/mL] | MIC [2] [µg/mL] | MIC [3] [µg/mL] | pIC50 [4] | MIC [5] [µg/mL] | MIC [6] [µg/mL] | MIC [7] [µg/mL] | MIC [8] [µg/mL] | MIC [9] [µg/mL] | pIC50 [10] | pIC50 [11] | MIC [12] [µg/mL] | MIC [13] [µg/mL] | MIC [14] [µg/mL] | MIC [15] [µg/mL] | MIC [16] [µg/mL]
CCCCCC1=C(O)C(CCCCC)(CCCCC)C(=O)C(C(=O)CCc2ccccc2)=C1O [Compound 19, 3,5-dihydroxy-2-(3-phenylpropanoyl)-4,6,6-tripentylcyclohexa-2,4-dienone] | 2 (≈ 4.27 µM) | 0.39 (≈ 0.832 µM) | 9 (≈ 19.2 µM) | 5.39 | 0.049 (≈ 0.105 µM) | 15 (≈ 32 µM) | 14 (≈ 29.9 µM) | 1 (≈ 2.13 µM) | 15 (≈ 32 µM) | 4.89 | 5.14 | 2 (≈ 4.27 µM) | 0.7 (≈ 1.49 µM) | 50 (≈ 107 µM) | 19 (≈ 40.5 µM) | 3 (≈ 6.4 µM)
CC(C)CCC1=C(O)C(CCC(C)C)(CCC(C)C)C(=O)C(C(=O)C(C)Cc2ccccc2)=C1O (centres unmarked) [Compound 20, 3,5-dihydroxy-2-(2-methyl-3-phenylpropanoyl)-4,6,6-triisopentylcyclohexa-2,4-dienone] | 0.6 (≈ 1.24 µM) | 0.78 (≈ 1.62 µM) | 0.7 (≈ 1.45 µM) | 5.14 | 0.098 (≈ 0.203 µM) | 15 (≈ 31.1 µM) | 6 (≈ 12.4 µM) | 0.7 (≈ 1.45 µM) | 19 (≈ 39.4 µM) | 4.89 | 4.92 | 0.4 (≈ 0.829 µM) | 0.7 (≈ 1.45 µM) | 50 (≈ 104 µM) | 24 (≈ 49.7 µM) | 0.7 (≈ 1.45 µM)
